Measurements published in publication PMC9649909, “Wnt-pathway inhibitors with selective activity against triple-negative breast cancer: From thienopyrimidine to quinazoline inhibitors” (Frontiers in Pharmacology, 2022).
Like-named read-outs stand apart in the source and are kept apart here.

Columns and labels:
[1] = system: β-catenin-dependent Wnt-pathway; assay: TopFlash luciferase reporter assay, CHIR99021-stimulated, HCC1395; type: cell-based; settings: for IC50 / Emax: stimulation with CHIR99021 (GSK3β inhibitor); for IC50: read-out: HCC1395 TopFlash IC50; for Emax: read-out: HCC1395 TopFlash Efficacy
Description: Both stimulations abolish formation of the destruction complex, a multiprotein complex consisting of Axin, adenomatous polyposis coli (APC), glycogen synthase kinase three beta (GSK3β), and casein kinase one alpha (CK1α). Upon inactivation of the complex, β-catenin accumulates in the cytoplasm and translocates into the nucleus where it interacts with transcription factors. These downstream events are quantified by a Luciferase transcription-based readout assay (TopFlash assay).

BT-20 TNBC cell line = assay: MTT survival assay BT-20; type: cell-based; settings: Homo sapiens, BT-20
Method: (§1) Indicated TNBC cell lines were detached and resuspended at 120,000 cells/ml and added into each well of a transparent 384-well plate in the final volume of 20 µl/well. The cells were maintained in DMEM containing 10% FBS at 37°C, 5% CO2 overnight. Next day, the medium in each well was replaced by 40 μl of the fresh one containing the indicated concentrations of compounds. In case of drug combination experiments, each compound dilution was delivered in corresponding well in 20 μl of medium. […] After incubation for 3–4 days, depending on the cell line, the medium in each well was replaced by 25 μl of 0.5 mg/ml Thiazolyl blue solution in 1xPBS following by incubation for 3 h at 37°C. Then the solution was removed and 25 μl DMSO was added into each well. Absorbance at 510 nm was measured in a Tecan Infinite M200 PRO plate reader.

in vitro = settings: human, HCC1395 Cytotoxicity IC50
Method: (§2) The simplicity of the scaffold combined with synthetic accessibility allows building a library of compounds and performing structure activity relationship (SAR) studies of the three main parts of the molecule: the top part, the linker and the core (Figure 2).
(§3) The synthesized compounds were used to explore SAR of three defined areas of investigation (Figure 2). All compounds were tested in the HCC1395 TNBC cell line using the GSK3β inhibitor to induce β-catenin signaling since 4a acted downstream of GSK3β (Figure 2). Both inhibition of β-catenin signaling measured by the TopFlash reporter and cytotoxicity measured by the Renilla reporter were assessed.
(§4) The Wnt3a or CHIR99021-stimulated luciferase activity in HCC1395 TNBC cell line stably transfected with the TopFlash reporter was analyzed essentially as described for the BT-20 TNBC cell line ([Shaw et al., 2019b]; [Koval et al., 2021]). Reporter cells were seeded at 10,000 cells/well in a white opaque 384-well plate in the final volume of 20 μl of DMEM medium supplemented with 10% FCS. The cells were maintained incubated at 37°C, 5% CO2 overnight for attachment. Subsequently, they were transfected by a plasmid encoding constitutively expressed Renilla luciferase under the CMV promoter overall as described in the manufacturer’s protocol using 12 μg/ml of DNA and 40 μl/ml XtremeGENE nine reagent. The next day, the medium in each well was replaced with a 10 μl of fresh medium containing compound of interest, and, after 1 h of preincubation with the compounds, additional 10 μl of medium supplemented with Wnt3a [purified as described ([Willert et al., 2003]; [Koval and Katanaev, 2011])] or CHIR99021 were added creating respective final concentrations of 2.5 μg/ml or 5 μM of each. In case of other signal transduction reporters, no additional stimulation was performed. Compound dilutions were prepared by serial dilution in DMSO and diluted with the amount of medium necessary to obtain their final concentrations indicated on the figures and tables and maintain concentration of DMSO of 0.5% in all assay points. After overnight incubation, the supernatant in each well was removed, and the luciferase activity was measured as described ([Dyer et al., 2000]; [Huber et al., 2021]; [Pellissier et al., 2021]). The culture medium was completely removed from all wells of the plate. Finally, the luciferase activity of the firefly and Renilla luciferases was detected sequentially in individual wells of a 384-well plate through injection of corresponding measurement solutions and immediate reading (400 ms integration time) in Infinite M Plex multifunctional plate reader with injection module.

HCC1395 cells = assay: in vitro
Method: as §2, §3, §4

HCC1806 TNBC cell line = assay: MTT survival assay HCC1806; type: cell-based; settings: for IC50: Homo sapiens, HCC1806
Method: as §1

[2] = system: MDA-MB-468 TNBC cell line; assay: MTT survival assay MDA-MB-468; type: cell-based; settings: Homo sapiens, MDA-MB-468; Table S2
Method: as §1

[3] = system: non-cancerous breast epithelial cell line MCF10a; assay: MTT survival assay MCF10a; type: cell-based; settings: for IC50: Homo sapiens, MCF-10A
Method: as §1

HCC1395 TNBC cell line = assay: MTT survival assay HCC1395; type: cell-based; settings: Homo sapiens, HCC1395
Method: as §1

[4] = system: MDA-MB-231 TNBC cell line; assay: MTT survival assay MDA-MB-231; type: cell-based; settings: for IC50: Homo sapiens, MDA-MB-231
Method: as §1

TNBC cell proliferation = assay: Loewe synergism with docetaxel in anti-proliferative assay (COMBENEFIT); type: cell-based; settings: Loewe model
Description: The Wnt-pathway is implicated in chemoresistance to conventional chemotherapies and drives a poor chemotherapy response in a broad range of tumors ([O’Reilly et al., 2015]; [Martin-Orozco et al., 2019]; [Zhong and Virshup, 2020]). To assess how combination with our compounds affects the anti-proliferative capacity of docetaxel—one of the first-line treatments for TNBC ([Mandapati and Lukong, 2022]), we performed the Loewe synergism assessment over a complete dose-response range of both compounds followed by analysis in the COMBENEFIT software in Matlab (Figure 7 and Supplementary Figure S1) ([Di Veroli et al., 2016]).
as §1
The data was visualized analyzed in either GraphPad Prism nine using indicated statistical analysis or in R using gplots package ([Warnes et al., 2009]). Dataset from CCLE ([Barretina et al., 2012]) were used in the study and pathway enrichment analysis was performed by DAVID online tool ([Sherman et al., 2022]). Drug combination data was treated in COMBENEFIT software ([Di Veroli et al., 2016]). Network was built using Cytoscape with StringDB plugin ([Shannon et al., 2003]; [Szklarczyk et al., 2021]).

[5] = Table S2, read-out: MTT BT-20 IC50
[6] = Table S2, read-out: MTT HCC1806 IC50
[7] = Table S2, read-out: MTT MCF10 IC50
[8] = Figure 3B heatmap, read-out: IC50, μM (MDA-MB-231)
[9] = Table S2, read-out: MTT MDA-MB-231 IC50
[10] = Table S2, read-out: MTT HCC-1395 IC50

Row | IC50 ([1]; Homo sapiens, HCC1395, HCC1395) | Structure (SMILES) | IC50 (BT-20 TNBC cell line; [5]) | IC50 (in vitro) | GSK HCC1395 Renilla Comments (HCC1395 cells) | IC50 (HCC1806 TNBC cell line; [6]) | IC50 [2] | IC50 [3, 7] | IC50 [4, 8] | IC50 [4, 9] | Emax ([1]; Homo sapiens, HCC1395, HCC1395) | MTT HCC1806 Comments (HCC1806 TNBC cell line; Table S2) | effect of co-treatment with docetaxel (TNBC cell proliferation) | IC50 (HCC1395 TNBC cell line; [10]) | MTT MCF10 Comments ([3]; Table S2) | MTT MDA-MB-231 plateau ([4]; Table S2) | also measured
1 | > 50 µM | c1ccc(CCCNc2ncnc3sccc23)cc1 [Compound 5h, N-(3-phenylpropyl)thieno[2,3-d]pyrimidin-4-amine] | 36.8 µM | > 50 µM | Non-toxic | 37.1 µM | > 50 µM | > 50 µM | > 10 µM | > 50 µM |  |  |  |  |  |  | TopFlash activity in words ([1]; HCC1395, CHIR99021): inactive; IC50 (BT-20 TNBC cell line; Figure 3B heatmap, no activity up to maximal tested concentration, read-out: IC50, μM (BT20)): > 50 µM; IC50 (HCC1806 TNBC cell line; Figure 3B heatmap, read-out: IC50, μM (HCC1806)): > 10 µM; IC50 ([3]; Figure 3B heatmap, read-out: IC50, μM (MCF10)): > 10 µM; selectivity over the control cells (difference in IC50, MCF10a vs HCC1395) ([3]; MTT IC50 ratio MCF10a / HCC1395): less than 3 fold; IC50 (HCC1395 TNBC cell line; MTT, Figure 3B heatmap and text, read-out: IC50, μM (HCC1395)): > 50 µM
2 | 0.67 ± 0.13 µM | Fc1ccc(CNc2ncnc3ccccc23)cc1 [Compound 9d, N-(4-fluoro)quinazolin-4-amine] | 2.92 µM | > 50 µM |  | > 10 µM | 0.8 µM | 12.5 µM |  | > 10 µM | 87.1 ± 4.09% | Inactive | exclusively synergistic effects | 1.15 µM |  |  | MTT MDA-MB-231 Comments ([4]; Table S2): Inactive
3 | 8.4 ± 5.01 µM | Clc1cccc(CNc2ncnc3sccc23)c1 [Compound 4i, N-(3-chlorobenzyl)thieno[2,3-d]pyrimidin-4-amine] | 5.24 µM | > 50 µM | Non-toxic | 2.2 µM | 1.44 µM | > 10 µM |  | 18.7 µM | 56.2 ± 4% |  |  | 1.74 µM | Inactive | 100 | 
4 | 1.88 ± 0.28 µM | Cc1ccc(C(C)Nc2ncnc3ccccc23)cc1 (centres unmarked) [Compound 9i, N-(1-(p-tolyl)ethyl)quinazolin-4-amine] |  | 10.3 ± 2.06 µM |  |  |  |  |  |  | 54.6 ± 2.9% |  | exclusively synergistic effects |  |  |  | HCC1395 Cytotoxicity Efficacy (HCC1395 cells; human): 38.7 ± 12.8%
5 | 1.79 µM | Clc1cccc(CCNc2ncnc3sccc23)c1 [Compound 5l, N-(3-chlorophenethyl)thieno[2,3-d]pyrimidin-4-amine] | 15 µM | > 50 µM | Non-toxic | 38.1 µM | 37 µM | > 50 µM | > 10 µM | > 50 µM | 77.5 ± 16.3% |  |  | 6.15 µM |  |  | IC50 ([1]; HCC1395): 3.07 ± 2.39 µM
6 | 4.96 ± 1.65 µM | COc1cccc(CNc2ncnc3sccc23)c1 [Compound 4c, N-(3-methoxybenzyl)thieno[2,3-d]pyrimidin-4-amine] | 2.89 µM | > 50 µM | Non-toxic | > 50 µM | 1.61 µM | > 50 µM | > 10 µM | 9.37 µM | 58.6 ± 22.8% | Inactive |  | 1.08 µM | Inactive | 100 | IC50 (HCC1395 cells; human): > 100 µM
